# Laboratory results from publication PMC12495412, “Coumarin/nitrogen-bearing heterocyclic hybrid-loaded electrospun PMMA/PVP nanofibrous scaffolds for accelerating topical wound healing rates: synthesis and in vitro bio-evaluation” (RSC Advances, 2025).
# Marks after values point to notes of the source that are not given here.
# Tests used:
# Wi-38 cells = test: MTT cytotoxicity assay, normal cells; format: cell-based; conditions: WI-38, normal human lung fibroblast cells, 48 h
# From the text: (§1) MTT assay: the normal cell line (Wi-38), colon cancer (Caco-2), lung cancer (A549), and breast cancer (MDA) cell lines were sourced from ATCC, USA. All different cell lines were cultivated and preserved in DMEM medium (SERANA, Germany), accompanied by 10% FBS (Gibco, USA) and 1% Pen/Strep solution (Lonza, USA). The newly prepared derivatives at various doses were considered for their anticancer activity and their safety on normal cells, applying MTT (3-[4, 5-dimethylthiazol]-2, 5-diphenyltetrazolium bromide) methods.[22] At first, all normal and cancer cell lines (1.0 ×10^4) were inoculated in 4 antiseptic 96-well tissue culture microplates and incubated for 24 h in a CO2 incubator. After cell attachments, the prepared derivatives were added to both normal Wi-38 cells at diverse concentrations of (6.25–200 μg mL^−1, 2-fold) and cancer cells at different concentrations of (3.125–100 μg mL^−1, 2-fold) in triplicate and incubated for another 48 h at 37 °C in a CO2 incubator with an adjusted concentration of 5%. After that, the treated cells were cleaned three times with PBS to remove debris and dead cells. Next, 200 μL of 0.5 mg mL^−1 MTT dye solution in PBS was mixed in each well, and the cells were further kept for 3 h at 37 °C in a 5% CO2 incubator. After that, MTT was removed and 200 μL of DMSO was added to each well. The optical density (OD) was recorded at 570 nm via a microplate reader (B.M.G. LabTech, Germany). Basic cells (untreated) were utilized as negative control cells, and 5-fluorouracil (5-FU) was included as a standard chemotherapy drug. The qualified cell viability (%) was evaluated as in equation (eqn (1)):1 Relative cell viability (%) = […] A1 is the OD of the examined derivative, A0 is the OD of the standard, and AU is the OD of the untreated cells.
# (§2) Anticancer activity assay: the anticancer effect of each derivative was assessed by evaluating the half-maximal inhibitory concentration (IC50) value via the GraphPad Prism 7.0 software. However, SI (selective index) values of each derivative were estimated by splitting the IC50 value of healthy cells by the IC50 value of malignant cells, as previously reported.[23] The effects of the created derivatives on the morphology of MDA cells were evaluated at IC50 doses and captured by phase-contrast microscopy (Olympus, Germany) in comparison to untreated control cells.
# Caco-2 cells = test: MTT anticancer assay; format: cell-based; conditions: for IC50: Homo sapiens, Caco-2, colon carcinoma cells, MTT, 48 h; for SI Caco-2: IC50 Wi-38 / IC50 Caco-2
# From the text: as §1, §2
# A549 cells [1] = test: MTT anticancer assay; format: cell-based, human; conditions: Homo sapiens, A549, lung carcinoma cells, 48 h
# From the text: as §1, §2
# MDA cells = test: MTT anticancer assay; format: cell-based, human; conditions: Homo sapiens, Breast carcinoma cell, 48 h
# From the text: as §1, §2
# A549 cells [2] = test: Wound healing scratch (anti-migration) assay; format: cell-based, human; conditions: IC50 doses, 48 h
# Procedure: To assess the anti-migration inhibition capability of newly synthesized derivatives, a wound healing technique was employed. A549 cells were planted in 12-well plates and kept alive at 37 °C until they achieved 80–90% fluency. The cell monolayers were smashed with a sterile tip and exposed to the prepared derivatives at IC50 doses. At 0 and 48 h of treatment, the wound closure area was captured and calculated by imaging analysis with the Cell-Sens software (Olympus, Japan).
# all applied pathogens = test: Agar-well diffusion of synthesized compounds, whole panel; format: cell-based
# From the text: The antimicrobial activity of the prepared compounds was estimated through an agar-well diffusion method as adapted from the modified Kirby–Bauer protocol.[24] In this test, microbial pathogens were applied, including Staphylococcus aureus ATCC 25923 (S. aureus), Streptococcus mutans ATCC 25175 (S. mutans), Bacillus cereus ATCC 19637 (B. cereus), Bacillus aureus ATCC 25923 (B. aureus), Bacillus epidermidis ATCC 14990 (B. epidermidis), and Bacillus subtilis ATCC 11774 (B. subtilis) as Gram-positive bacteria, and Pseudomonas aeruginosa ATCC 27853 (P. aeruginosa), Klebsiella pneumonia ATCC 13883 (K. pneumonia), and Salmonella typhimurium ATCC 14028 (S. typhimurium), Salmonella pneumoniae ATCC 10031(S. pneumoniae), Escherichia coli ATCC 10536 (E. coli), and Salmonella paratyphi ATCC 9150 (S. paratyphi) as Gram-negative bacteria. Additionally, Candida albicans (ATCC 10231), Candida krusei ATCC 6258 (C. krusei), Candida glabrata ATCC 66032 (C. glabrata), andCandida parapsilosis ATCC 22019 (C. parapsilosis) were applied as models of unicellular fungi. The pre-inoculation cultures of the pathogens were prepared on Muller–Hinton broth and cultivated for 24 h at 37 °C. The agar-well test was prepared on Muller–Hinton agar with 100 μL of each pathogen pre-culture (0.5 McFarland conc.) and uniformly distributed on the plate surface. Under aseptic conditions, six wells were created on the agar surface using a sterile corkborer (9 mm). To each well, 100 μL of the prepared compound (10 mg mL^−1) was separately inserted into each plate. All plates were incubated for 24 h at 37 °C; the established inhibition zones (Halo-zones) surrounding the wells indicated positive antimicrobial activity and were stated as the radius of the inhibition zone (mm).
# Bacillus cereus [3] = test: Agar-well diffusion of formulations; format: cell-based; conditions: 50 μL per 5 mm well, 37 °C
# Procedure: (§3) The antimicrobial qualities of formulations were evaluated in this study using a variety of techniques. The formulations including 8 PMMA and 2 PVP, which contained varying doses of drug A (0.5% = T1, 1% = T2, 3% = T3, and 5% = T4) or drug B (0.5% = T5, 1% = T6, 3% = T7, and 5% = T8), as well as a combination of 2.5% of drug A and 2.5% of drug B (T9) were assessed. The tested human pathogens were cultivated in a nutritional broth medium containing 0.5% peptone, 0.3% yeast extract, 0.2% beef extract, 0.1% glucose, and 0.5% NaCl in accordance with 0.5 McFarland turbidity criteria.[25] To carry out the agar-well diffusion analysis, microbial cultures (100 μL) were spread on nutrient agar plates using sterile cotton swabs. After drilling each well with a sterile cork-borer of 5 mm in diameter, 50 μL of the tested formulations and the control (composed of 8 PMMA and 2 PVP) were loaded. Agar plates were thereafter left to incubate at 37 °C for an entire day. The inhibitory zone that surrounds each well was measured in millimeters (mm) using a ruler.[26]
# Bacillus subtilis [4] = test: Agar-well diffusion of formulations; format: cell-based; conditions: 50 μL per 5 mm well, 37 °C
# Procedure: as §3
# Candida albicans [5] = test: Agar-well diffusion of formulations; format: cell-based; conditions: 50 μL per 5 mm well, 37 °C
# Procedure: as §3
# Candida glabrata [6] = test: Agar-well diffusion of formulations; format: cell-based; conditions: 50 μL per 5 mm well, 37 °C
# Procedure: as §3
# Candida krusei [7] = test: Agar-well diffusion of formulations; format: cell-based; conditions: 50 μL per 5 mm well, 37 °C
# Procedure: as §3
# Candida parapsilosis [8] = test: Agar-well diffusion of formulations; format: cell-based; conditions: 50 μL per 5 mm well, 37 °C
# Procedure: as §3
# Escherichia coli [9] = test: Agar-well diffusion of formulations; format: cell-based; conditions: 50 μL per 5 mm well, 37 °C
# Procedure: as §3
# Klebsiella pneumoniae [10] = test: Agar-well diffusion of formulations; format: cell-based; conditions: 50 μL per 5 mm well, 37 °C
# Procedure: as §3
# Pseudomonas aeruginosa [11] = test: Agar-well diffusion of formulations; format: cell-based; conditions: 50 μL per 5 mm well, 37 °C
# Procedure: as §3
# Salmonella paratyphi [12] = test: Agar-well diffusion of formulations; format: cell-based; conditions: 50 μL per 5 mm well, 37 °C
# Procedure: as §3
# Staphylococcus aureus [13] = test: Agar-well diffusion of formulations; format: cell-based; conditions: 50 μL per 5 mm well, 37 °C
# Procedure: as §3
# [14] = tested on: Staphylococcus epidermidis; test: Agar-well diffusion of formulations; format: cell-based; conditions: 50 μL per 5 mm well, 37 °C
# Procedure: as §3
# [15] = tested on: multidrug-resistant human pathogens; test: Agar-well diffusion of formulations, whole panel; format: cell-based; conditions: all human pathogens investigated
# Procedure: as §3
# Bacillus cereus [16] = test: Biofilm inhibition test (spectrophotometric); format: cell-based; conditions: 24 h, 37 °C, OD vs untreated
# Procedure: (§4) Additionally, a spectrophotometric antibiofilm assay was utilized to determine whether the evaluated formulations might inhibit the growth of pathogens. Fresh nutritional broth was inoculated with each pathogen separately, and this mixture was then incubated at 37 °C at 200 rpm. The optical density (OD) at 600 nm was measured over a 6 h incubation period, allowing for an estimation of the starting microbe's exponential phase (3 × 10^7 CFU mL^−1). To produce treated cultures, 900 μL of planktonic cultures were collected aseptically with 100 μL of each formulation. Furthermore, untreated (formula-free) cultures of pathogens were grown as controls. The cultures were then incubated for 24 hours at 200 rpm and 37 °C. Through spectroscopic evaluation of microbial turbidity, the inhibitory effects of the examined formulations were determined.[27] By comparing the OD of the treated sample with the matching controls, anti-biofilm percentages for each formula were computed.[28]
# Bacillus subtilis [17] = test: Biofilm inhibition test (spectrophotometric); format: cell-based; conditions: 24 h, 37 °C, OD vs untreated
# Procedure: as §4
# Candida albicans [18] = test: Biofilm inhibition test (spectrophotometric); format: cell-based; conditions: 24 h, 37 °C, OD vs untreated
# Procedure: as §4
# Candida glabrata [19] = test: Biofilm inhibition test (spectrophotometric); format: cell-based; conditions: 24 h, 37 °C, OD vs untreated
# Procedure: as §4
# Candida krusei [20] = test: Biofilm inhibition test (spectrophotometric); format: cell-based; conditions: 24 h, 37 °C, OD vs untreated
# Procedure: as §4
# Candida parapsilosis [21] = test: Biofilm inhibition test (spectrophotometric); format: cell-based; conditions: 24 h, 37 °C, OD vs untreated
# Procedure: as §4
# Escherichia coli [22] = test: Biofilm inhibition test (spectrophotometric); format: cell-based; conditions: 24 h, 37 °C, OD vs untreated
# Procedure: as §4
# Klebsiella pneumoniae [23] = test: Biofilm inhibition test (spectrophotometric); format: cell-based; conditions: 24 h, 37 °C, OD vs untreated
# Procedure: as §4
# Pseudomonas aeruginosa [24] = test: Biofilm inhibition test (spectrophotometric); format: cell-based; conditions: 24 h, 37 °C, OD vs untreated
# Procedure: as §4
# Salmonella paratyphi [25] = test: Biofilm inhibition test (spectrophotometric); format: cell-based; conditions: 24 h, 37 °C, OD vs untreated
# Procedure: as §4
# Staphylococcus aureus [26] = test: Biofilm inhibition test (spectrophotometric); format: cell-based; conditions: 24 h, 37 °C, OD vs untreated
# Procedure: as §4
# [27] = tested on: Staphylococcus epidermidis; test: Biofilm inhibition test (spectrophotometric); format: cell-based; conditions: 24 h, 37 °C, OD vs untreated
# Procedure: as §4
compound,measurement,setting,value
"O=C(Nc1ccc(Nc2c3ccccc3nc3ccccc23)cc1)c1cc2ccccc2oc1=O [Compound B, N-(4-(acridin-9-ylamino)phenyl)-2-oxo-2H-chromene-3-carboxamide]",IC50,Wi-38 cells,126 ± 10.9 µg/mL
same,IC50,Caco-2 cells,4.87 ± 1.69 µg/mL
same,SI Caco-2,Caco-2 cells,25.93 ± 2.25
same,IC50,A549 cells [1],6.98 ± 1.99 µg/mL
same,IC50,MDA cells,4.27 ± 0.46 µg/mL
same,Migration inhibition,A549 cells [2],87.21%
same,Antimicrobial activity,all applied pathogens,no antimicrobial activity
O=C(Nc1ccc(Nc2c3ccccc3nc3ccccc23)cc1)c1cc2ccccc2oc1=O [Compound C3],Inhibition zone diameters,Bacillus cereus [3],0 mm
same,Inhibition zone diameters,Bacillus subtilis [4],0 mm
same,Inhibition zone diameters,Candida albicans [5],9.29 ± 1.25^fg mm
same,Inhibition zone diameters,Candida glabrata [6],0 mm
same,Inhibition zone diameters,Candida krusei [7],0 mm
same,Inhibition zone diameters,Candida parapsilosis [8],7.25 ± 2.33^fg mm
same,Inhibition zone diameters,Escherichia coli [9],0 mm
same,Inhibition zone diameters,Klebsiella pneumoniae [10],0 mm
same,Inhibition zone diameters,Pseudomonas aeruginosa [11],0 mm
same,Inhibition zone diameters,Salmonella paratyphi [12],0 mm
same,Inhibition zone diameters,Staphylococcus aureus [13],0 mm
same,Inhibition zone diameters,[14],0 mm
same,Antimicrobial effect,[15],only has an impact on a few examined yeast infections
same,Biofilm reduction,Bacillus cereus [16],23.36 ± 2.96^h %
same,Biofilm reduction,Bacillus subtilis [17],37.29 ± 2.84^h %
same,Biofilm reduction,Candida albicans [18],27.13 ± 3.96^h %
same,Biofilm reduction,Candida glabrata [19],35.48 ± 2.58^h %
same,Biofilm reduction,Candida krusei [20],29.91 ± 2.44^h %
same,Biofilm reduction,Candida parapsilosis [21],25.79 ± 1.98^h %
same,Biofilm reduction,Escherichia coli [22],20.93 ± 3.64^h %
same,Biofilm reduction,Klebsiella pneumoniae [23],20.56 ± 2.65^h %
same,Biofilm reduction,Pseudomonas aeruginosa [24],22.35 ± 2.58^h %
same,Biofilm reduction,Salmonella paratyphi [25],22.55 ± 1.87^h %
same,Biofilm reduction,Staphylococcus aureus [26],31.25 ± 2.98^h %
same,Biofilm reduction,[27],34.71 ± 1.56^h %
"O=c1[nH]cc(F)c(=O)[nH]1 [Compound 5-FU, 5-fluorouracil, reference compound]",IC50,Wi-38 cells,5.23 ± 0.18 µg/mL
same,IC50,Caco-2 cells,6.13 ± 0.28 µg/mL
same,SI Caco-2,Caco-2 cells,0.85 ± 0.03
same,IC50,A549 cells [1],5.74 ± 0.24 µg/mL
same,IC50,MDA cells,5.89 ± 0.19 µg/mL
